What follows are compounds tested on A549 cells (assay: Proliferation Assay (A549 viability, Cell Titer Fluor, 72 hours)). Conditions: Homo sapiens, A549, 72 h.
Format: cell-based
Protocol: A549 cells were routinely maintained in RPMI 1640 media (Gibco catalog number 11875-093) supplemented with 10% dialyzed fetal bovine serum using a humidified incubator (37° C., 5% CO2 and ambient O2). In preparation for the viability assay, cells were inoculated into 384-well black CulturPlates (Perkin Elmer) at a density of 1000 cells/well in a volume of 40 uL. Following a 24-hour incubation at 37° C., 5% CO2 and ambient O2, cells were treated with compound ([…]) in a final DMSO concentration of 0.5% (v/v). The microplates were then incubated for 72 hours (37° C., 5% CO2 and ambient O2). Cell Titer Fluor (Promega) was subsequently added (10 uL of 6× reagent) and mixed for 15 minutes at room temperature. The plates were then incubated for 30 minutes (37° C., 5% CO2 and ambient O2) and fluorescence was subsequently read on the Perkin Elmer Envision plate reader. IC50 values were calculated using a four-parameter logistic curve fit.

| Compound | EC50 |
| --- | --- |
| O=C(NCc1cccc(OC(F)(F)F)c1)c1cn(CCCCn2cc(C(=O)NCc3ccc(C(F)(F)F)cn3)nn2)nn1 [Example 81, 1-{4-[4-({[3-(trifluoromethoxy)phenyl]methyl}carbamoyl)-1H-1,2,3-triazol-1-yl]butyl}-N-{[5-(trifluoromethyl)pyridin-2-yl]methyl}-1H-1,2,3-triazole-4-carboxamide] | < 100 nM |
| O=C(NCc1cc(OC(F)(F)F)ccc1F)c1cn(CCC(F)Cn2cc(C(=O)NCc3ccccn3)nn2)nn1 (stereo not shown) [Example 369, 1-{2-fluoro-4-[4-({[2-fluoro-5-(trifluoromethoxy)phenyl]methyl}carbamoyl)-1H-1,2,3-triazol-1-yl]butyl}-N-(pyridin-2-ylmethyl)-1H-1,2,3-triazole-4-carboxamide] | < 100 nM |

These compounds were tested against GLS1 (purified recombinant human GAC) (Homo sapiens (Human), UniProt O94925) (assay: GLS1 Enzymatic Activity Assay (dual-coupled glutamate oxidase/HRP Amplex UltraRed)). Conditions: not given.
Format: biochemical

Sequence of GLS1 (purified recombinant human GAC) (O94925 other isoform, or with tags, fused parts or gaps): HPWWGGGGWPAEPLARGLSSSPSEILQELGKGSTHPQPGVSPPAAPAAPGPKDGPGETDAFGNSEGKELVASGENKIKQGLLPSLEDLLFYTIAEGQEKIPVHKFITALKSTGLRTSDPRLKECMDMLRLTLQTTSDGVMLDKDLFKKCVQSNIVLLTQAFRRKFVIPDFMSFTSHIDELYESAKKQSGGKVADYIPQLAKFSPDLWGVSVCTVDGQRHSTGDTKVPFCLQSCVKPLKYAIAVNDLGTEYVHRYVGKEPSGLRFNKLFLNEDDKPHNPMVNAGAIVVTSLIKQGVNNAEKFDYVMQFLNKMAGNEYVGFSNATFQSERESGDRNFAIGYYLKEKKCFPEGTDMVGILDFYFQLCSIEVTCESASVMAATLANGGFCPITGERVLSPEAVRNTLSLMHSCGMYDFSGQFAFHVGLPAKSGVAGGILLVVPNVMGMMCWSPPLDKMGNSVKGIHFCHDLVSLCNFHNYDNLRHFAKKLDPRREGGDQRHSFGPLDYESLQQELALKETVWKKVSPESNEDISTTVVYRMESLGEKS

| IC50 | Compound |
| --- | --- |
| < 100 nM | CNC(=O)c1cn(CCCCc2ccc(NC(=O)Cc3cc(C4CC4)ccn3)nn2)nn1 [Example 190, 1-(4-{6-[2-(4-cyclopropylpyridin-2-yl)acetamido]pyridazin-3-yl}butyl)-N-methyl-1H-1,2,3-triazole-4-carboxamide] |
| < 100 nM | CNC(=O)c1cn(CCCCc2ccc(NC(=O)Cc3cc(Cl)ccn3)nn2)nn1 [Example 191, 1-(4-{6-[2-(4-chloropyridin-2-yl)acetamido]pyridazin-3-yl}butyl)-N-methyl-1H-1,2,3-triazole-4-carboxamide] |
| < 100 nM | CNC(=O)c1cn(CCCCc2ccc(NC(=O)Cc3cc(Br)ccn3)nn2)nn1 [Example 200, 1-(4-(6-(2-(4-bromopyridin-2-yl)acetamido)pyridazin-3-yl)butyl)-N-methyl-1H-1,2,3-triazole-4-carboxamide] |
| < 100 nM | CNC(=O)c1cn(CCCCc2ccc(NC(=O)Cc3ccc(Cl)nc3)nn2)nn1 [Example 544, 1-(4-{6-[2-(6-chloropyridin-3-yl)acetamido]pyridazin-3-yl}butyl)-N-methyl-1H-1,2,3-triazole-4-carboxamide] |
| < 100 nM | CNC(=O)c1cn(CCCCc2ccc(NC(=O)Cc3cncc(Br)c3)nn2)nn1 [Example 546, 1-(4-{6-[2-(5-bromopyridin-3-yl)acetamido]pyridazin-3-yl}butyl)-N-methyl-1H-1,2,3-triazole-4-carboxamide] |
| < 100 nM | CNC(=O)c1cn(CCCCc2ccc(NC(=O)Cc3cc(-c4cc(F)ccc4C)ccn3)nn2)nn1 [Example 609, 1-(4-(6-(2-(4-(5-fluoro-2-methylphenyl)pyridin-2-yl)acetamido)pyridazin-3-yl)butyl)-N-methyl-1H-1,2,3-triazole-4-carboxamide] |

Second part, the compound before the results:

| Compound | IC50 |
| --- | --- |
| CNC(=O)c1cn(CCCCc2ccc(NC(=O)Cc3cncc(OC4CC(F)(F)C4)c3)nn2)nn1 [Example 202, 1-(4-(6-(2-(5-(3,3-difluorocyclobutoxy)pyridin-3-yl)acetamido)pyridazin-3-yl)butyl)-N-methyl-1H-1,2,3-triazole-4-carboxamide] | < 100 nM |
| O=C(Cc1ccccn1)Nc1ccc(CCCCn2cc(C(=O)NCc3cc(C(F)(F)F)ccn3)nn2)nn1 [Example 203, 1-(4-(6-(2-(pyridin-2-yl)acetamido)pyridazin-3-yl)butyl)-N-((4-(trifluoromethyl)pyridin-2-yl)methyl)-1H-1,2,3-triazole-4-carboxamide] | < 100 nM |
| O=C(Cc1cncc(OC2CC(F)(F)C2)c1)Nc1ccc(CCCCn2cc(C(=O)NCc3cc(C(F)(F)F)ccn3)nn2)nn1 [Example 230, 1-(4-(6-(2-(5-(3,3-difluorocyclobutoxy)pyridin-3-yl)acetamido)pyridazin-3-yl)butyl)-N-((4-(trifluoromethyl)pyridin-2-yl)methyl)-1H-1,2,3-triazole-4-carboxamide] | < 100 nM |
| O=C(Cc1cncc(OC2CC(F)(F)C2)c1)Nc1ccc(CCCCn2cc(C(=O)NCc3ccccn3)nn2)nn1 [Example 231, 1-(4-(6-(2-(5-(3,3-difluorocyclobutoxy)pyridin-3-yl)acetamido)pyridazin-3-yl)butyl)-N-(pyridin-2-ylmethyl)-1H-1,2,3-triazole-4-carboxamide] | < 100 nM |
| CNC(=O)c1cn(CC(F)CCc2ccc(NC(=O)Cc3cc(OC(C)C(F)(F)F)ccn3)nn2)nn1 (stereo not shown) [Example 266, 1-(2-fluoro-4-(6-(2-(4-((1,1,1-trifluoropropan-2-yl)oxy)pyridin-2-yl)acetamido)pyridazin-3-yl)butyl)-N-methyl-1H-1,2,3-triazole-4-carboxamide] | < 100 nM |
| CNC(=O)c1cn(CCCCc2ccc(NC(=O)Cc3cc(-c4ccc(F)cc4C(F)(F)F)ccn3)nn2)nn1 [Example 606, 1-(4-(6-(2-(4-(4-fluoro-2-(trifluoromethyl)phenyl)pyridin-2-yl)acetamido)pyridazin-3-yl)butyl)-N-methyl-1H-1,2,3-triazole-4-carboxamide] | < 100 nM |
| CNC(=O)c1cn(CCCCc2ccc(NC(=O)Cc3cc(-c4cccc(OC(F)(F)F)c4F)ccn3)nn2)nn1 [Example 607, 1-(4-(6-(2-(4-(2-fluoro-3-(trifluoromethoxy)phenyl)pyridin-2-yl)acetamido)pyridazin-3-yl)butyl)-N-methyl-1H-1,2,3-triazole-4-carboxamide] | < 100 nM |
| CNC(=O)c1cn(CCCCc2ccc(NC(=O)Cc3cc(-c4cccc(Cl)c4OC(F)(F)F)ccn3)nn2)nn1 [Example 608, 1-(4-(6-(2-(4-(3-chloro-2-(trifluoromethoxy)phenyl)pyridin-2-yl)acetamido)pyridazin-3-yl)butyl)-N-methyl-1H-1,2,3-triazole-4-carboxamide] | < 100 nM |

Source: patent publication US11370786B2, “GLS1 inhibitors for treating disease” (Board of Regents, The University of Texas System, priority 2014, dated 2022)
